Assay results reported in patent US7348427B2, “Antipathogenic benzamide compounds” (Genesoft Pharmaceuticals, Inc., priority 2001, dated 2008).
In brackets after ≈: the same amount, converted by molar mass.

Experiments:
E. faecalis ATCC 29212 = assay: MIC, NCCLS broth microdilution assay; assay type: cell-based, Enterococcus faecalis; conditions: C = E. faecalis ATCC 29212
Outline: (§1)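 Broth microdilution per NCCLS M7-A4 (1997) guidelines; MIC recorded as minimal inhibitory concentration.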

S. pneumoniae ATCC 49619 = assay: MIC, NCCLS broth microdilution assay; assay type: cell-based, Streptococcus pneumoniae; conditions: H = S. pneumoniae ATCC 49619
Outline: as §1

[1] = test system: Staphylococcus aureus (ATCC 27660, a methicillin resistant strain (MRSA)); assay: MIC, NCCLS broth microdilution assay; assay type: cell-based; conditions: F = S. aureus ATCC 27660
Outline: (§2)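 MIC determined by broth microdilution in microtiter plates per NCCLS documents M7-A4, M11-A4 (1997) and M27-T (1995). Antifungal testing against the yeast followed the method recommended in the Manual of Clinical Microbiology (1995).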

[2] = test system: Bacillus cereus (ATCC 11778); assay: MIC, NCCLS broth microdilution assay; assay type: cell-based; conditions: A = B. cereus ATCC 11778
Outline: as §2

[3] = test system: Staphylococcus aureus (ATCC 13709, a methicillin sensitive strain (MSSA)); assay: MIC, NCCLS broth microdilution assay; assay type: cell-based; conditions: E = S. aureus ATCC 13709
Outline: as §2

[4] = test system: Candida albicans (ATCC 38247); assay: Antifungal MIC assay; assay type: cell-based; conditions: B = C. albicans ATCC 38247
Outline: as §2

[5] = Staphylococcus aureus, read-out: Minimum Inhibitory Concentration (MIC)

Row | Structure (SMILES) | Minimum Inhibitory Concentration (MIC) (E. faecalis ATCC 29212) | Minimum Inhibitory Concentration (MIC) (S. pneumoniae ATCC 49619) | Minimum Inhibitory Concentration (MIC) [1] | Minimum Inhibitory Concentration (MIC) [2] | Minimum Inhibitory Concentration (MIC) [3] | Minimum Inhibitory Concentration (MIC) [4] | MIC (E. faecalis ATCC 29212; Enterococcus faecalis, ATCC29212, read-out: Minimum Inhibitory Concentration (MIC)) [µg/mL] | MIC (S. pneumoniae ATCC 49619; Streptococcus pneumoniae, ATCC49619, read-out: Minimum Inhibitory Concentration (MIC)) [µg/mL] | MIC [1, 5] [µg/mL] | MIC ([2]; Bacillus cereus, ATCC11778, read-out: Minimum Inhibitory Concentration (MIC)) [µg/mL] | MIC [3, 5] [µg/mL] | MIC ([4]; Candida albicans, ATCC38247, read-out: Minimum Inhibitory Concentration (MIC)) [µg/mL]
1 | Cn1cc(NC(=O)c2cc(NC(=O)c3ccccc3F)cn2C)cc1C(=O)NCCN1CCSCC1 [Compound B-40] | +++ (+++ = MIC ≦ 4) | +++ (+++ = MIC ≦ 4) | ++ (++ = 4 < MIC < 12) | ++ (++ = 4 < MIC < 12) | ++ (++ = 4 < MIC < 12) | >32 µg/mL | – | – | – | – | – | –
2 | Cn1cc(NC(=O)c2cc(NC(=O)c3cc(NC(=O)c4cc(NC(=O)c5ccccc5F)cn4C)cn3C)cn2C)cc1C(=O)NCCN1CCSCC1 [Compound B-42] | +++ (+++ = MIC ≦ 4) | +++ (+++ = MIC ≦ 4) | +++ (+++ = MIC ≦ 4) | +++ (+++ = MIC ≦ 4) | +++ (+++ = MIC ≦ 4) | >32 µg/mL | – | – | – | – | – | –
3 | Cn1cc(NC(=O)c2cc(NC(=O)c3ccccc3F)cn2C)cc1C(=O)NCCN1CCOCC1 [Compound B-43] | + (+ = 12 ≦ MIC ≦ 32) | + (+ = 12 ≦ MIC ≦ 32) | + (+ = 12 ≦ MIC ≦ 32) | + (+ = 12 ≦ MIC ≦ 32) | + (+ = 12 ≦ MIC ≦ 32) | >32 µg/mL | – | – | – | – | – | –
4 | Cn1cc(NC(=O)c2cc(NC(=O)c3cc(NC(=O)c4cc(NC(=O)c5ccccc5F)cn4C)cn3C)cn2C)cc1C(=O)NCCN1CCOCC1 [Compound B-44] | ++ (++ = 4 < MIC < 12) | +++ (+++ = MIC ≦ 4) | ++ (++ = 4 < MIC < 12) | +++ (+++ = MIC ≦ 4) | +++ (+++ = MIC ≦ 4) | >32 µg/mL | – | – | – | – | – | –
5 | Cn1cc(NC(=O)c2cc(NC(=O)c3cc(NC(=O)c4ccc(F)cc4NCCCNC4CCCCC4)cn3C)cn2C)cc1C(N)=O [Compound B-51] | >32 µg/mL | + (+ = 12 ≦ MIC ≦ 32) | + (+ = 12 ≦ MIC ≦ 32) | ++ (++ = 4 < MIC < 12) | ++ (++ = 4 < MIC < 12) | >32 µg/mL | – | – | – | – | – | –
6 | Cn1cc(NC(=O)c2cc(NC(=O)c3ccc(Cl)c(Cl)c3)cn2C)cc1C(=O)NCCN1CCOCC1 [Compound B-54] | ++ (++ = 4 < MIC < 12) | +++ (+++ = MIC ≦ 4) | ++ (++ = 4 < MIC < 12) | ++ (++ = 4 < MIC < 12) | +++ (+++ = MIC ≦ 4) | >32 µg/mL | – | – | – | – | – | –
7 | Cn1cc(NC(=O)c2cc(NC(=O)c3cc(NC(=O)c4ccc(Cl)cc4NCCCNC4CCCCC4)cn3C)cn2C)cc1C(N)=O [Compound B-63] | >32 µg/mL | +++ (+++ = MIC ≦ 4) | +++ (+++ = MIC ≦ 4) | + (+ = 12 ≦ MIC ≦ 32) | +++ (+++ = MIC ≦ 4) | >32 µg/mL | – | – | – | – | – | –
8 | Cn1cc(NC(=O)c2cc(NC(=O)c3cc(NC(=O)c4ccc(Cl)cc4NCCN4CCCCC4)cn3C)cn2C)cc1C(N)=O [Compound B-65] | + (+ = 12 ≦ MIC ≦ 32) | ++ (++ = 4 < MIC < 12) | ++ (++ = 4 < MIC < 12) | ++ (++ = 4 < MIC < 12) | + (+ = 12 ≦ MIC ≦ 32) | >32 µg/mL | – | – | – | – | – | –
9 | Cn1cc(NC(=O)c2cc(NC(=O)c3ccc(C#N)cc3)cn2C)cc1C(=O)NCCN1CCOCC1 [Compound B-69] | + (+ = 12 ≦ MIC ≦ 32) | +++ (+++ = MIC ≦ 4) | >32 µg/mL | + (+ = 12 ≦ MIC ≦ 32) | + (+ = 12 ≦ MIC ≦ 32) | >32 µg/mL | – | – | – | – | – | –
10 | Cn1cc(NC(=O)c2cc(NC(=O)c3cc(NC(=O)c4ccc(F)cc4F)cn3C)cn2C)cc1C(=O)NCCc1ccccn1 [Compound B-82] | +++ (+++ = MIC ≦ 4) | +++ (+++ = MIC ≦ 4) | +++ (+++ = MIC ≦ 4) | +++ (+++ = MIC ≦ 4) | +++ (+++ = MIC ≦ 4) | >32 µg/mL | – | – | – | – | – | –
11 | Cn1cc(NC(=O)c2cc(NC(=O)c3cc(NC(=O)c4ccc(Br)cc4F)cn3C)cn2C)cc1C(=O)NCCN1CCOCC1 [Compound B-83] | +++ (+++ = MIC ≦ 4) | +++ (+++ = MIC ≦ 4) | +++ (+++ = MIC ≦ 4) | +++ (+++ = MIC ≦ 4) | +++ (+++ = MIC ≦ 4) | >32 µg/mL | – | – | – | – | – | –
12 | Cn1cc(NC(=O)c2cc(NC(=O)c3cc(NC(=O)c4ccc(OC(F)F)cc4)cn3C)cn2C)cc1C(=O)NCCN1CCCC1 [Compound B-84] | +++ (+++ = MIC ≦ 4) | +++ (+++ = MIC ≦ 4) | +++ (+++ = MIC ≦ 4) | +++ (+++ = MIC ≦ 4) | +++ (+++ = MIC ≦ 4) | + (+ = 12 ≦ MIC ≦ 32) | – | – | – | – | – | –
13 | Cn1cc(NC(=O)c2cc(NC(=O)c3cc(NC(=O)c4ccc(OC(F)F)cc4)cn3C)cn2C)cc1C(=O)NCCN1CCCCC1 [Compound B-85] | +++ (+++ = MIC ≦ 4) | +++ (+++ = MIC ≦ 4) | +++ (+++ = MIC ≦ 4) | +++ (+++ = MIC ≦ 4) | +++ (+++ = MIC ≦ 4) | + (+ = 12 ≦ MIC ≦ 32) | – | – | – | – | – | –
14 | Cn1cc(NC(=O)c2cc(NC(=O)c3cc(NC(=O)c4ccc(OC(F)F)cc4)cn3C)cn2C)cc1C(=O)NCCN1CCSCC1 [Compound B-86] | +++ (+++ = MIC ≦ 4) | +++ (+++ = MIC ≦ 4) | +++ (+++ = MIC ≦ 4) | +++ (+++ = MIC ≦ 4) | +++ (+++ = MIC ≦ 4) | >32 µg/mL | – | – | – | – | – | –
15 | Cn1cc(NC(=O)c2ccc(F)cc2F)cc1C(=O)Nc1cc(C(=O)Nc2c[nH]c(C(=O)NCCN3CCOCC3)c2)n(C)c1 [Compound C-1] | – | – | – | – | – | – | 4 to 12 (≈ 6.42 to 19.3 µM) | ≤ 4 | 12 to 32 (≈ 19.3 to 51.4 µM) | 12 to 32 (≈ 19.3 to 51.4 µM) | 4 to 12 (≈ 6.42 to 19.3 µM) | > 32
16 | Cn1cc(NC(=O)c2cc(NC(=O)c3cc(NC(=O)c4ccc(F)cc4F)cn3C)c[nH]2)cc1C(=O)NCCN1CCOCC1 [Compound C-2] | ++ (++ = 4 < MIC < 12) | +++ (+++ = MIC ≦ 4) | ++ (++ = 4 < MIC < 12) | ++ (++ = 4 < MIC < 12) | ++ (++ = 4 < MIC < 12) | >32 µg/mL | – | – | – | – | – | –
17 | Cn1cc(NC(=O)c2cc(NC(=O)c3cc(NC(=O)c4ccc(F)cc4F)c[nH]3)c[nH]2)cc1C(=O)NCCN1CCOCC1 [Compound C-3] | ++ (++ = 4 < MIC < 12) | +++ (+++ = MIC ≦ 4) | + (+ = 12 ≦ MIC ≦ 32) | + (+ = 12 ≦ MIC ≦ 32) | + (+ = 12 ≦ MIC ≦ 32) | >32 µg/mL | – | – | – | – | – | –
18 | Cn1cc(NC(=O)c2cc(NC(=O)c3cc(NC(=O)c4ccc(F)cc4F)cn3C)cn2CCCO)cc1C(=O)NCCN1CCOCC1 [Compound C-4] | + (+ = 12 ≦ MIC ≦ 32) | +++ (+++ = MIC ≦ 4) | + (+ = 12 ≦ MIC ≦ 32) | + (+ = 12 ≦ MIC ≦ 32) | + (+ = 12 ≦ MIC ≦ 32) | >32 µg/mL | – | – | – | – | – | –
19 | Cn1cc(NC(=O)c2cc(NC(=O)c3cc(NC(=O)c4ccc(F)cc4F)c[nH]3)cn2CCCO)cc1C(=O)NCCN1CCOCC1 [Compound C-5] | + (+ = 12 ≦ MIC ≦ 32) | +++ (+++ = MIC ≦ 4) | + (+ = 12 ≦ MIC ≦ 32) | + (+ = 12 ≦ MIC ≦ 32) | + (+ = 12 ≦ MIC ≦ 32) | >32 µg/mL | – | – | – | – | – | –
